Paper PMC11224357, “Green, facile synthesis and evaluation of unsymmetrical carbamide derivatives as antimicrobial and anticancer agents with mechanistic insights” (Scientific Reports, 2024)
Converted amounts (≈) assume the structure as drawn.

Assays:
[1] = system: Aspergillus fumagitus; test: Agar well diffusion; assay type: cell-based; details: Aspergillus fumagitus; 20 µg/mL; read-out: Inhibition Zone
Excerpt: (§1) The antimicrobial efficiency of the synthesized unsymmetrical carbamide derivatives was screened using standard clinical pathogens derived from Department of Microbiology and Immunology, Faculty of Medicine (Boys), Al-Azhar University. The tested microbial pathogens used in this study were as follows, two Gram-positive bacteria (Bacillus subtilis, Staphylococcus aureus), two Gram-negative bacteria (Pseudomonas aerginousea, klebsiella pneumoniae) and two fungi (Candida albicans, Aspergillus fumgitus). Before each antimicrobial examination, pre-activation of each microbial pathogen was implemented using specific growth conditions. For bacterial ones, preinoculum was prepared using Nuitrent broth medium (Codalab, Spain) at 37 °C for 24 h. while the fungal pathogens were activated using Potato Dextrose broth (Codalab, Spain) at 28 °C for 48 h. Consequently, each tested pathogen justified its inoculum size based on Colony Forming Units (CFU) to be closed to […] during all antimicrobial tests.

[2] = system: Candida albicans; test: Agar well diffusion; assay type: cell-based; details: 20 µg/mL, read-out: Inhibition Zone
Excerpt: as §1

[3] = system: Bacillus subtilis; test: Agar well diffusion; assay type: cell-based; details: 20 µg/mL, read-out: Inhibition Zone
Excerpt: as §1, with “For bacterial ones, preinoculum was prepared using Nuitrent broth medium (Codalab, Spain) at 37 °C for 24 h. while the fungal pathogens were activated using Potato Dextrose broth (Codalab, Spain) at 28 °C for 48 h.” left out

[4] = system: Klebsiella pneumonia; test: Agar well diffusion; assay type: cell-based; details: Klebsiella pneumoniae; Klebsiella pneumonia; 20 µg/mL; read-out: Inhibition Zone
Excerpt: as §1, with “For bacterial ones, preinoculum was prepared using Nuitrent broth medium (Codalab, Spain) at 37 °C for 24 h. while the fungal pathogens were activated using Potato Dextrose broth (Codalab, Spain) at 28 °C for 48 h.” left out

[5] = system: Pseudomonas aeruginosa; test: Agar well diffusion; assay type: cell-based; details: 20 µg/mL, read-out: Inhibition Zone
Excerpt: as §1, with “For bacterial ones, preinoculum was prepared using Nuitrent broth medium (Codalab, Spain) at 37 °C for 24 h. while the fungal pathogens were activated using Potato Dextrose broth (Codalab, Spain) at 28 °C for 48 h.” left out

[6] = system: Staphylococcus aureus; test: Agar well diffusion; assay type: cell-based
Excerpt: as §1, with “For bacterial ones, preinoculum was prepared using Nuitrent broth medium (Codalab, Spain) at 37 °C for 24 h. while the fungal pathogens were activated using Potato Dextrose broth (Codalab, Spain) at 28 °C for 48 h.” left out

[7] = system: Aspergillus fumagitus; test: MIC by microdilution (CLSI); assay type: cell-based; details: read-out: Minimum inhibitory concentration (MIC)
Experimental: (§2) For this purpose, serial dilution of the potent compounds was carried out to obtain the desired concentrations (i.e. 10–400 µg/mL). In brief, a defined weight for each selected compound was dissolved in dimethylsulphoxide (DMSO) and used as a stock solution[29]. The determination of the MIC value for each targeted compound was known as the lowest concentration of each sample that yielded a minimum number of colony-forming units (CFU) compared to the untreated samples[28].

[8] = system: Candida albicans; test: MIC by microdilution (CLSI); assay type: cell-based; details: read-out: Minimum inhibitory concentration (MIC)
Experimental: as §2

[9] = system: Bacillus subtilis; test: MIC by microdilution (CLSI); assay type: cell-based; details: read-out: Minimum inhibitory concentration (MIC)
Experimental: (§3) In brief, a defined weight for each selected compound was dissolved in dimethylsulphoxide (DMSO) and used as a stock solution[29].

[10] = system: Pseudomonas aeruginosa; test: MIC by microdilution (CLSI); assay type: cell-based; details: read-out: Minimum inhibitory concentration (MIC)
Experimental: as §3

[11] = system: Staphylococcus aureus; test: MIC by microdilution (CLSI); assay type: cell-based; details: read-out: Minimum inhibitory concentration (MIC)
Experimental: as §3

[12] = system: Klebsiella pneumonia; test: MIC by microdilution (CLSI); assay type: cell-based; details: Klebsiella pneumoniae, read-out: Minimum inhibitory concentration (MIC)
Experimental: as §3

[13] = system: MCF-7 (human breast cancer); test: MTT cytotoxicity assay; assay type: cell-based; details: Homo sapiens, MCF-7, 48 h; for IC50: MCF7, 48 h, MTT
Experimental: The MTT 3-(4,5-dimethylthiazol-2-yl)-2,5-diphenyl-tetrazolium bromide (Bio Basic Canada Inc. Toronto, Canada) assay was used to assess cell viability. The procedures were carried out in a biosafety class II sterile laminar air flow cabinet (Baker, SG403INT; Sanford, ME, USA). […] Cells were seeded at a density of (10^4 cells/well) into 96-well micro titer polypropylene plates and left to adhere for 24 h. […] After 48 h of incubation, 40 µL of MTT salt ([…]) was applied to each well. […] Instead of the tested substances, the medium was applied to the untreated cells (negative control). […] The testing substance was dissolved in dimethylsulfoxide (DMSO), and its final concentration in the cells was less than 0.2%. The solvent concentration was the same for all medications and between the control and drug treatments at the same dilution.

[14] = system: HCT-116 (human colon cancer); test: MTT cytotoxicity assay; assay type: cell-based; details: HCT-116, MTT, 48 h
Experimental: The MTT 3-(4,5-dimethylthiazol-2-yl)-2,5-diphenyl-tetrazolium bromide (Bio Basic Canada Inc. Toronto, Canada) assay was used to assess cell viability. The procedures were carried out in a biosafety class II sterile laminar air flow cabinet (Baker, SG403INT; Sanford, ME, USA). […] Cells were seeded at a density of (10^4 cells/well) into 96-well micro titer polypropylene plates and left to adhere for 24 h. The media was aspirated and the test chemicals were given to the cells in a single dose of 100 µM in DMSO. After 48 h of incubation, 40 µL of MTT salt ([…]) was applied to each well. […] Instead of the tested substances, the medium was applied to the untreated cells (negative control). […] The testing substance was dissolved in dimethylsulfoxide (DMSO), and its final concentration in the cells was less than 0.2%. The solvent concentration was the same for all medications and between the control and drug treatments at the same dilution.

Row | SMILES | zone of inhibition at 20 µg/mL [1] | zone of inhibition at 20 µg/mL [2] | zone of inhibition at 20 µg/mL [3] | zone of inhibition at 20 µg/mL [4] | zone of inhibition at 20 µg/mL [5] | zone of inhibition at 20 µg/mL [6] | MIC [7] | MIC [8] | MIC [9] | MIC [10] | MIC [11] | melting point | MIC [12] | IC50 [13] | cytotoxicity at 100 µM ([13]; MCF7, single dose 100 µM, read-out: Cytotoxicity (%)) | IC50 [14]
1 | Cc1ccc(NC(=O)N2CCN(C)CC2)cc1 [Compound 16, 4-Methyl-N-(p-tolyl)piperazine-1-carboxamide] | 3 mm | 5 mm | 2 mm | 5 mm | 3 mm | 2 mm | 80 µg/mL (≈ 343 µM) | 10 µg/mL (≈ 42.9 µM) | 160 µg/mL (≈ 686 µM) | 160 µg/mL (≈ 686 µM) | 320 µg/mL (≈ 1370 µM) | 252 to 253 °C |  |  |  | 
2 | Cc1ccc(NC(=O)N2CCCCC2)cc1 [Compound 17, N-(p-tolyl)piperidine-1-carboxamide] | 3 mm | 2 mm | 5 mm | 3 mm | 3 mm | 2 mm | 20 µg/mL (≈ 91.6 µM) | 20 µg/mL (≈ 91.6 µM) | 10 µg/mL (≈ 45.8 µM) | 40 µg/mL (≈ 183 µM) | 80 µg/mL (≈ 366 µM) | 230 to 232 °C | 80 µg/mL (≈ 366 µM) |  |  | 
3 | Cc1ccc(NC(=O)NC23CC4CC(CC(C4)C2)C3)cc1 [Compound 18, 1-(Adamantan-1-yl)-3-(p-tolyl)urea] | 3 mm | 2 mm | 2 mm |  |  |  |  |  |  |  |  | 180 to 182 °C |  |  |  | 
4 | O=C(Nc1ccccc1)N1CCCC1 [Compound 19, N-phenylpyrrolidine-1-carboxamide] | 3 mm | 4 mm | 2 mm | 4 mm | 2 mm | 2 mm | 40 µg/mL (≈ 210 µM) | 10 µg/mL (≈ 52.6 µM) | 80 µg/mL (≈ 421 µM) | 80 µg/mL (≈ 421 µM) | 160 µg/mL (≈ 841 µM) | 233 to 235 °C |  |  |  | 
5 | O=C(Nc1ccccc1)N1CCOCC1 [Compound 20, N-phenylmorpholine-4-carboxamide] | 2 mm | 3 mm | 2 mm | 4 mm | 3 mm |  |  |  |  |  |  |  |  |  |  | 
6 | O=C(Nc1ccccc1)NC12CC3CC(CC(C3)C1)C2 [Compound 23, 1-(Adamantan-1-yl)-3-phenylurea] |  | 3 mm | 3 mm | 2 mm |  | 2 mm |  |  |  |  |  |  |  | 68.6 ± 0.116 µM | ≥ 51% | 
7 | COc1cccc2c1C(=O)c1c(O)c3c(c(O)c1C2=O)C[C@@](O)(C(=O)CO)C[C@@H]3O[C@H]1C[C@H](N)[C@H](O)[C@H](C)O1 [Doxorubicin, doxorubicin, reference compound] |  |  |  |  |  |  |  |  |  |  |  |  |  | 45 ± 0.123 µM |  | 65.1 ± 0.141 µM
8 | OC(Cn1cncn1)(Cn1cncn1)c1ccc(F)cc1F [Fluconazole, reference compound] |  |  |  |  |  |  | > 400 µg/mL | > 400 µg/mL |  |  |  |  |  |  |  | 
